Data on two molecules can be found in patent publication US20040072842A1 (published 2004).

Broadly, the melting point is the temperature of the solid-liquid transition. Molecule `O=C(COCc1ccccc1)N1CCN(c2ccc(N3C[C@H](CNC(=S)C(F)F)OC3=O)cc2)CC1` yielded a melting point of 166 to 168 °C.

`O=C(CO)N1CCC(c2ccc(N3C[C@H](CNC(=S)C(F)F)OC3=O)cc2F)CC1` came in with a melting point of 151 to 152 °C.
